From a melting point compilation (Tetko et al.; mined from patent text by program, amines drawn as free bases though some values may be those of a salt)

Structure (SMILES)	melting point [°C]
O=[N+]([O-])c1ccc(F)c(-c2cccs2)c1	65
C=CCNC(=O)C1CCc2cc(C3CCCCC3)ccc2O1 (stereo unspecified)	93 to 94
CC(CS)C(=O)Nc1cccc(C(=O)O)n1 (stereo unspecified)	178 to 179
COc1ccc(C2C(C(=O)/C=C/c3ccc(OC)c(OC)c3)C(=O)CC(c3ccc(OC)c(OC)c3)C2[N+](=O)[O-])cc1 (stereo unspecified)	158 to 160
CC1C(c2ncc(Cl)cc2F)=NN(C)CS1=S (stereo unspecified)	107 to 112
CC(C)(C)c1ccc(-c2nc(NC(=O)c3ccccc3)sc2-c2ccncc2)cc1	292 to 294
COc1cc(-c2ncn(C3CC3)c2-c2ccc(C(F)(F)F)cc2)cc(OC)c1OC	125 to 130
COc1ccc(C(=O)NCCCCCCCCCCCCNC(=O)c2ccc(OC)cc2)cc1	169 to 170
O=C1CCC(N2Cc3c(OCc4ccc(CN5CCN(c6ncccn6)CC5)cc4)cccc3C2=O)C(=O)N1 (stereo unspecified)	142 to 144
Cc1ccc(-c2cc3cc(-c4ccccc4)ccc3o2)cc1	156 to 158
CC(=O)c1cn(-c2c(Cl)cc(C(F)(F)F)cc2Cl)nc1C(F)(F)F	134
COc1ccc2c(c1)c(CCl)nn2Cc1ccccc1	78 to 80
Clc1ccc2nc(N3CCN(c4c(Cl)cncc4Cl)CC3)[nH]c2c1	258 to 260
CN(CP(=O)(O)O)C1CCS(=O)(=O)C1 (stereo unspecified)	222 to 225
CC(C)(O)C(O)c1cnc(C2OCCO2)s1 (stereo unspecified)	130 to 131
CCCCN1C(=O)c2cnc(-c3ccccc3)nc2Nc2ccccc21	140 to 141
CCN(Cc1ccc(Cl)nc1)C1=C([N+](=O)[O-])C2CCC(O2)N1C (stereo unspecified)	125 to 126
ON=Cc1ccc2c(c1)ncn2-c1cccc(COCc2ccccn2)c1	154 to 155
COc1ccc2nc3cc(Cl)ccc3c(Oc3ccc(Cl)cc3)c2c1	152 to 153
Cc1[nH]cnc1/C=C/C(=O)c1c(C)sc2ccccc12	154 to 156
COCCOc1cc2c(Nc3ccc(Sc4nccn4C)c(Cl)c3)c(C#N)cnc2cc1F	265 to 270

Structure (SMILES)	melting point [°C]
O=C(CCCCl)N(c1ccccc1)c1ccccc1	78 to 79
COCCOc1ccc2ccc(NC(=O)c3ccc(OC)cc3)nc2n1	114
O[C@@H]1CCCC[C@H]1Nc1nc(Cl)ncc1Cl (relative stereo)	139 to 142
Cn1cnc2c(N)cc(Br)cc21	170
O=C(Nc1nc2ccc(C(F)(F)F)cc2s1)c1c(F)cccc1Cl	265 to 270
CC(C)c1nn(-c2nnc(C(F)(F)F)s2)cc1CCCO	89 to 90
CCOC(=O)c1cc2c(OCc3ccccc3)cc(C)cc2[nH]1	167 to 168
COC(=O)C(C(=O)OC)=C1SC=CS1	125 to 129
Cc1noc(C2CC2)c1I	71
COc1cc(C=Cc2conc2C)cc(Br)c1O	178 to 180
Cc1cn(C2CCCCC2)c(=O)nc1N	205 to 207
CC(C)c1ccc2c(c1)c(-c1ccccc1Cl)c(NC(=O)Nc1cccc(C(F)(F)F)c1)c(=O)n2C	209 to 210
Cc1cc(C#N)c(Nc2ccccc2[N+](=O)[O-])s1	99 to 102
COc1cc2c(c(Cl)c1Cl)C(=O)CCC2	132
CN(SN(C)C(=O)F)C(=O)F	40 to 41
c1ccc(C2CC(Cc3ccncc3)(Cc3ccncc3)c3ccccc32)cc1 (stereo unspecified)	210 to 225
O=C1N(Cc2noc(C(F)(F)F)n2)c2ccccc2C12COc1cc3c(cc12)OCO3 (stereo unspecified)	139 to 140
CCOC(=O)c1cc2c(O)nncc2nc1NC(C)C	219 to 220
Oc1ccc2c(c1)CCCC(c1ccccc1)=C2c1ccc(OCCCCCSCc2ccccn2)cc1	159
Cn1c(-c2c(F)cccc2F)nn(-c2ccccc2C(F)(F)F)c1=O	98 to 99
COc1c(OCc2ccccc2)cc(C(=O)Cl)cc1OCc1ccccc1	124 to 127

Structure (SMILES)	melting point [°C]
CCCC[C@H](NC(=O)[C@H](CC(C)C)NC(=O)OC(C)(C)C)C(=O)CCCc1cccs1	70 to 72
CCC(OC(=O)c1ccccc1)c1nc2c(C(F)(F)F)cccc2c(O)c1C(=O)Nc1nccs1 (stereo unspecified)	230
COC(=O)Cc1nc(-c2ccccc2)c(-c2ccccc2)o1	87 to 91
O=C(C#Cc1ccc(CCN2CCCC2)cc1)Nc1ccc(Cl)cc1	153 to 154
Cc1c(Cl)cc2c(c1Cl)OC(C(F)(F)F)C(C(=O)O)=C2 (stereo unspecified)	230 to 231
CCOC(=O)Cc1ccc(OCc2ccccc2)c2c1OCCO2	86
O=C(O)CS(=O)CC(=O)O	118 to 119
COc1ccc(C)cc1NC(=O)Nc1ccc(N2CCN(C(=O)Nc3ccc(OCCO)cc3Cl)CC2)c(F)c1	118 to 120
COC(=O)C(C(=O)OC)C(C#Cc1ccccc1)c1ccc(OC)c(OC2CCCC2)c1 (racemic)	66 to 67
CCn1nc(C)c2c(Cl)c(CCl)cnc21	96 to 97
O=c1ccn(-c2cccc(C(F)(F)F)c2)nc1-c1ccnn1-c1ccccc1Cl	139 to 140
Cc1n[nH]c2ccc(-c3nn(C(C)c4oc5ccccc5c(=O)c4-c4cccc(F)c4)c4ncnc(N)c34)cc12 (stereo unspecified)	254 to 256
Cc1c(C(=O)c2cnn(C(C)C)c2O)ccc2sc(=O)n(C)c12	175 to 177
CCCCCCCCOC(=O)c1[nH]c2cccc3c2c1CCNC3=O	170 to 171
COc1ccc(C(=O)NC(=O)Nc2cc3c(cc2F)/C(=C/c2ccc[nH]2)C(=O)N3)cc1	290 to 295
Cc1cccc(-c2n[nH]cc2-c2ccc(F)c(-c3csc(C(C)(C)O)n3)c2)n1	78 to 80
N#Cc1ccc(OC(Cc2ccc(OCCNC(=O)c3ccc(-c4ccccn4)cc3)cc2)C(=O)O)cc1 (stereo unspecified)	92 to 93
CC/C(=C\CCC(O)(CC)CC)c1cc(CCc2ccc(CO)c(CO)c2)cs1	85 to 86
CCOCCC(=O)OCC(=O)C1(O)CCC2C3CC(C)C4=CC(=O)C=CC4(C)C3C(O)CC21C (stereo unspecified)	186

Now from value to molecule:

melting point [°C]	Structure (SMILES)
110 to 113	CCOc1ccccc1-c1cccc(-n2cnc(-c3nc(C)no3)c2)c1
130 to 134	CC1(C)Oc2ccc([N+](=O)[O-])cc2C(Br)C1Br (stereo unspecified)
167 to 169	CC(C)(C)c1cc(CCC(=O)O)cc2c1OC(=O)C2
120	CC(C)C(F)(C(=O)O)c1ccc(Cl)cc1 (stereo unspecified)
131 to 132	CC(C)C(=O)ON(C(=O)NN(C)C)C1c2ccccc2Oc2ccccc21
81	COc1ccc(OCc2ccccc2)cc1N
> 67	CCCCN(Cc1ccc(-c2ccccc2S(=O)(=O)NC(=O)OC(C)(C)C)cc1)C(=O)N1CCCc2ccccc21
104 to 105	CCCCCSC1=NC(c2cccc([N+](=O)[O-])c2)C(C(=O)OCC)=C(C)N1 (stereo unspecified)
168 to 170	COc1ccc2c(c1)C(OC(C)C)=C(C(N)=O)S2=O (stereo unspecified)
121 to 122	CCCCc1nn(CCC)c(C(=O)O)c1Cc1ccc(C2(C(=O)O)CC=CC2)s1
77 to 80	CC(C)(O)c1nnn(Cc2cccc(C(F)(F)F)c2)c1I
54 to 55	CCC(=NOCc1ccc(Cl)cc1)c1cc(Cl)ccc1NS(=O)(=O)C(F)(F)F
118 to 119	Cc1cc(OC(=O)c2ccccc2)ccc1OCc1ccccc1
55 to 60	COc1ccc(CN2C(=O)CC[C@@]3(C)c4ccc(Cl)cc4CC[C@H]23)cc1 (relative stereo)
162 to 164	CS(C)=NS(=O)(=O)c1ccc(N2CC(CO)OC2=O)cc1 (stereo unspecified)
125 to 128	CNS(=O)(=O)c1cccc(S(N)(=O)=O)c1
280 to 282	O=C(c1ccccc1)N1CC=C(c2c[nH]c3ccc([N+](=O)[O-])cc23)CC1
259	O=C(NN=CC=Cc1ccc([N+](=O)[O-])o1)c1cc2ccccc2cc1O
173 to 174	CSCCS(=O)(=O)NCCCc1ccc(-c2ccc(=O)[nH]n2)cc1
280	O=c1[nH]c2cc(C(F)(F)F)ccc2n(CCn2ncnn2)c1=O

melting point [°C]	Structure (SMILES)
205 to 210	CN1CCC(N(C)S(=O)(=O)c2ccc(Nc3nccc(Nc4ccc(F)cc4)n3)cc2)CC1
175 to 177	O=C1Nc2cc3c(cc2SC1CCCN1CCN(c2ccc(F)cc2)CC1)OCO3 (stereo unspecified)
184 to 186	O=C(O)Cc1ccc(NC(=O)C(COc2ccc(Cl)cc2)NS(=O)(=O)c2ccc(F)cc2)cc1 (racemic)
123 to 124	COc1ccc(Nc2ccn(C(C)=O)n2)cc1
195	CCOc1ccc2c(c1)n(C1CCCCC1)c(=O)n2Cc1ccc(NC(=NC#N)NC)cc1OC
103 to 105	CC(C)C(C(=O)O)c1ccc(O)c([N+](=O)[O-])c1 (stereo unspecified)
190 to 193	CC(C)S(=O)(=O)NC(=O)c1cccc(N)c1
66 to 68	CNS(=O)(=O)OCCOc1ccccc1
109 to 111	O=[N+]([O-])c1cccc(C2=NCN(c3cccnc3)S2)c1
150 to 151	c1ccc(NC2CCCN2Cc2c[nH]c3ccccc23)cc1 (stereo unspecified)
239 to 242	CC1=CC(=O)C(=Cc2ccc(O)cc2O)O1
150 to 153	CCOC(=O)Cc1ccc(NC(=O)C(COc2ccccc2)NS(=O)(=O)c2ccc(Br)cc2)cc1 (racemic)
> 300	CC(C)CNC1NC(=O)N(c2ccccc2C(=O)O)C(=O)N1
172 to 174	CC(C#N)=C1CCN(c2ccc(N3C[C@H](CNC(=O)C(F)F)OC3=O)cc2F)CC1
140 to 141	CCOc1cc(C(=O)c2ccccn2)ccc1OCCO
133 to 136	CN(Cc1ccc(NC(=O)C2=Cc3cc(Br)ccc3N(C3CC3)CC2)cc1)C1CCOCC1
210 to 211	CCCNc1ccc(-c2nc(=O)c3ccccc3s2)cn1
161 to 162	Cc1noc(NC(=O)N2CCN(c3nccc(-c4cccc(F)c4)n3)CC2)c1C
143 to 146	O=C(Nc1ccc(F)cc1)c1ccc([N+](=O)[O-])cc1
> 225	Cc1ccc(C)c(-c2cccc3c2OC(CN)C3)c1 (stereo unspecified)
